From paper PMC5241706, “Biochemical and Structural Characterization of Selective Allosteric Inhibitors of the Plasmodium falciparum Drug Target, Prolyl-tRNA-synthetase” (ACS Infectious Diseases, 2016) come the findings set out here.

Assay [1] addresses T1, PfProRS (Plasmodium falciparum, UniProt Q8I5R7).
T1 construct: B2, AA7–746 (minus 6 amino acids, or 99% of the ORF); made in house; host or cells: E. coli BL21(DE3)R3 Rosetta Oxford
Kind of assay: luciferase ATP depletion assay, HTS format. In kind it is biochemical.

The target in assay [2] is T2, HsProRS (Homo sapiens, UniProt P07814).
T2 construct: made in house
T2 sequence (P07814 1007-1512 limits assumed): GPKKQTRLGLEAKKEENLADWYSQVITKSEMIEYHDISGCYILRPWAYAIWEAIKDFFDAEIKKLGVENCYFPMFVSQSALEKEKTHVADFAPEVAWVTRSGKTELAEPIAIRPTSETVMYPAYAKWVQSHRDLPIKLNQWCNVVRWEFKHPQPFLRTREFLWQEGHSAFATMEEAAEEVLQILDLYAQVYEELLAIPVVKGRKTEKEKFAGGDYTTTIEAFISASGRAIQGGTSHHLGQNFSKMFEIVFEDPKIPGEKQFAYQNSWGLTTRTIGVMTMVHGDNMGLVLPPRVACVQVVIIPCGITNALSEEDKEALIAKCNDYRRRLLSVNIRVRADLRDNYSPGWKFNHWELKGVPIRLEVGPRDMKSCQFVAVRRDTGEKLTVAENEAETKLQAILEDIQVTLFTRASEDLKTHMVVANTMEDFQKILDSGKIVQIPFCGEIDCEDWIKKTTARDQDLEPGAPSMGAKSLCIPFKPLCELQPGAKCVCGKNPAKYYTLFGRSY
The assay is described as follows: luciferase ATP depletion assay, counter-screen. The class given is biochemical. Conditions: for inhibition at 2.5 µM: at 2.50 μM (22.50 μM series); for inhibition at 7.5 µM: at 7.50 μM; for inhibition at 22.5 µM: at 22.50 μM; for inhibition at 187.5 µM: at 187.50 μM. (In general: A counterscreen serves to expose hits that act by an unwanted route or on another target.)

Where [3] appears, read: read-out: Percentage inhibition Pf ProRS.
Where [4] appears, read: at 0.03 μM (22.50 μM series), read-out: Percentage inhibition Hs ProRS.
Setting [5] is: read-out: Percentage inhibition Hs ProRS.
Setting [6] is: at 1.46 μM (750 μM series), read-out: Percentage inhibition Hs ProRS.

Where two headings read alike, the source gives them in different places. Where only a bound is given, the exact number is not on record here.

T1 sequence (Q8I5R7 7-746): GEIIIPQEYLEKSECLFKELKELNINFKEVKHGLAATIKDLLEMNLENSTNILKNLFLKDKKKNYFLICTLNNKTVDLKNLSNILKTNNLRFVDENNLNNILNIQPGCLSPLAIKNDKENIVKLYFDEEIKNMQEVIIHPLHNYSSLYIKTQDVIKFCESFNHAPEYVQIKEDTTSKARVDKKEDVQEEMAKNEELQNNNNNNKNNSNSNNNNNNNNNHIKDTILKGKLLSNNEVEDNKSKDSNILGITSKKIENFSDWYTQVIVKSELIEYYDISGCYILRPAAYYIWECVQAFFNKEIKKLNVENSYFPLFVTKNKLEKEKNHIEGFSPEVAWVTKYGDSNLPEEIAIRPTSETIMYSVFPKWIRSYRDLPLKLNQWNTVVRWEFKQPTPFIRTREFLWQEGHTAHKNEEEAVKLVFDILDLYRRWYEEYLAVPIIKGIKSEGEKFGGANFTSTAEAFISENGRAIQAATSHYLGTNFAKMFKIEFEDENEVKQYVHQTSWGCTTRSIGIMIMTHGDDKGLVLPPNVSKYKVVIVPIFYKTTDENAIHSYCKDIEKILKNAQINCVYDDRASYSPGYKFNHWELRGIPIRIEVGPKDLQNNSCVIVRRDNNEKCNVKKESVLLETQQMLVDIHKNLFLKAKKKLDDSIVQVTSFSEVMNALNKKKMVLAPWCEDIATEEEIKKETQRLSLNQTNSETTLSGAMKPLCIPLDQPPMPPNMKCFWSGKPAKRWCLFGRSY

For `CCn1nc(-c2ccc(C(=O)OC)cc2)nc2c(=O)n(C)c(=O)nc1-2` [MMV306025], in assay [1] (setting [3]), the inhibition (commonly the relative decrease from the control value, in per cent) at 0.03 µM was -0.55%; the inhibition at 0.06 µM is -0.04%; the inhibition at 0.12 µM came to 0.62%; the inhibition at 0.23 µM came to 4.5%. For the same molecule, in assay [1] (setting [3]), the inhibition at 0.47 µM was 21.8%, the inhibition at 0.94 µM worked out at 28.4%, the inhibition at 1.88 µM is 30% and the inhibition at 2.5 µM is 72.8%. The inhibition at 0.03 µM in assay [2] (at 0.03 μM (MMV306025 series), read-out: Percentage inhibition Hs ProRS) is 0.3%. Moreover, in assay [2] (at 0.06 μM, read-out: Percentage inhibition Hs ProRS), the inhibition at 0.06 µM is -0.07%. Moreover, the inhibition at 0.12 µM in assay [2] (at 0.12 μM (MMV306025 series), read-out: Percentage inhibition Hs ProRS) turned out to be 0.1%. Moreover, the inhibition at 0.23 µM in assay [2] (at 0.23 μM, read-out: Percentage inhibition Hs ProRS) amounted to 0.67%. Further, in assay [2] (at 0.47 μM, read-out: Percentage inhibition Hs ProRS), the inhibition at 0.47 µM stood at 4.1%. The inhibition at 0.94 µM in assay [2] (at 0.94 μM, read-out: Percentage inhibition Hs ProRS) stood at 14.9%. In assay [2] (at 1.88 μM, read-out: Percentage inhibition Hs ProRS), the inhibition at 1.88 µM worked out at 21.6%.

Turning to `Cc1ccc(-c2oc(N)c(C#N)c2-c2ccc(C)cc2)cc1` [SJ000368256], the inhibition at 0.12 µM is -0.29% in assay [1] (setting [3]) and -0.1% in assay [2] (at 0.12 μM (30 μM series), read-out: Percentage inhibition Hs ProRS). In addition, the inhibition at 0.37 µM in assay [1] (setting [3]) is -0.09%; in assay [2] (at 0.37 μM, read-out: Percentage inhibition Hs ProRS), 0.01%. The inhibition at 1.46 µM was -0.33% in assay [1] (setting [3]) and -0.15% in assay [2] (at 1.46 μM (30 μM series), read-out: Percentage inhibition Hs ProRS). For the same molecule, the inhibition at 3.33 µM in assay [1] (setting [3]) was 0.44%; in assay [2] (at 3.33 μM, read-out: Percentage inhibition Hs ProRS), 0.06%. Besides, the inhibition at 10 µM in assay [1] (setting [3]) turned out to be 0.96%; in assay [2] (at 10.00 μM, read-out: Percentage inhibition Hs ProRS) it was 0.08%. The inhibition at 30 µM in assay [1] (setting [3]) was determined as 39.7%; in assay [2] (at 30.00 μM, read-out: Percentage inhibition Hs ProRS), 0.41%.

Consider `O=C(CCn1cncn1)N1CCCC(c2[nH]c3ccccc3c2-c2ccncc2)C1` (stereo not drawn) [TCMDC-125377], for which, in assay [1] (setting [3]), the inhibition at 0.28 µM came out at 6.8%, the inhibition at 0.03 µM was 1.17%, the inhibition at 0.09 µM worked out at 2.41% and the inhibition at 0.83 µM turned out to be 15.4%. In assay [1] (setting [3]), the inhibition at 2.5 µM worked out at 24.7%, the inhibition at 7.5 µM was determined as 33.9% and the inhibition at 22.5 µM stood at 40.1%. The inhibition at 0.03 µM in assay [2] (setting [4]) came out at 0.18%. In addition, in assay [2] (setting [5]), the inhibition at 0.09 µM was -0.1%, the inhibition at 0.28 µM was -0.22%, the inhibition at 0.83 µM is -0.91% and the inhibition at 2.5 µM was -0.37%. In assay [2] (setting [5]), the inhibition at 7.5 µM came out at 0.2% and the inhibition at 22.5 µM was 0.03%.

For the molecule `N[C@@H](COc1cccc2c(-c3ccncc3)c(-c3cccc(NC(=O)Nc4ccccc4)c3)nn12)c1ccccc1` [TCMDC-135512], in assay [1] (setting [3]), the inhibition at 0.28 µM worked out at 2.37%, the inhibition at 0.03 µM came out at 1.13%, the inhibition at 0.09 µM was 2.63% and the inhibition at 0.83 µM came out at 3.62%. Besides, in assay [1] (setting [3]), the inhibition at 2.5 µM amounted to 11.8%, the inhibition at 7.5 µM was 40.4% and the inhibition at 22.5 µM amounted to 56.8%. Besides, in assay [2] (setting [4]), the inhibition at 0.03 µM was -0.42%. In assay [2] (setting [5]), the inhibition at 0.09 µM is 0.03%, the inhibition at 0.28 µM is -0.52%, the inhibition at 0.83 µM was -0.24% and the inhibition at 2.5 µM was -0.12%. In assay [2] (setting [5]), the inhibition at 7.5 µM was -0.42% and the inhibition at 22.5 µM is -0.2%.

On to `CCCCC(N)COc1cccc2c(-c3ccncc3)c(-c3cccc(NC(=O)Nc4ccccc4)c3)nn12` (stereo not drawn) [TCMDC-135537], for which, in assay [1] (setting [3]), the inhibition at 0.28 µM is -1.18%, the inhibition at 0.03 µM was -1.72%, the inhibition at 0.09 µM was -1.11% and the inhibition at 0.83 µM came to 1.73%. In assay [1] (setting [3]), the inhibition at 2.5 µM stood at 11.7%, the inhibition at 7.5 µM is 39% and the inhibition at 22.5 µM was determined as 84.8%. Besides, the inhibition at 0.03 µM in assay [2] (setting [4]) was -0.2%. For the same molecule, in assay [2] (setting [5]), the inhibition at 0.09 µM was -0.49%, the inhibition at 0.28 µM was 0.03%, the inhibition at 0.83 µM is 0.8% and the inhibition at 2.5 µM came out at 0%. In assay [2] (setting [5]), the inhibition at 7.5 µM amounted to 0.28% and the inhibition at 22.5 µM is 0.55%.

As for `N#CC(c1ccc(Cl)cc1)c1c(Cl)cc(-n2ncc(=O)[nH]c2=O)cc1Cl` (stereo not drawn) [diclazuril], the inhibition at 0.49 µM turned out to be 0.21% in assay [1] (setting [3]) and 0.05% in assay [2] (at 0.49 μM, read-out: Percentage inhibition Hs ProRS). In addition, the inhibition at 0.98 µM in assay [1] (setting [3]) was -1.18%; in assay [2] (at 0.98 μM, read-out: Percentage inhibition Hs ProRS), -0.02%. Also, the inhibition at 1.95 µM in assay [1] (setting [3]) was -0.74%; in assay [2] (at 1.95 μM, read-out: Percentage inhibition Hs ProRS) it was 0.08%. Further, the inhibition at 3.91 µM in assay [1] (setting [3]) is -0.59%; in assay [2] (at 3.91 μM, read-out: Percentage inhibition Hs ProRS), 0.28%. Besides, the inhibition at 7.81 µM came to 2.35% in assay [1] (setting [3]) and 0.42% in assay [2] (at 7.81 μM, read-out: Percentage inhibition Hs ProRS). In addition, the inhibition at 15.63 µM in assay [1] (setting [3]) is 2.75%; in assay [2] (at 15.63 μM, read-out: Percentage inhibition Hs ProRS), 0.09%. Also, the inhibition at 31.25 µM is 7.77% in assay [1] (setting [3]) and 0.4% in assay [2] (at 31.25 μM, read-out: Percentage inhibition Hs ProRS). Also, the inhibition at 62.5 µM in assay [1] (setting [3]) came to 19.5%; in assay [2] (at 62.50 μM, read-out: Percentage inhibition Hs ProRS), 0.07%. For the same molecule, the inhibition at 125 µM is 43% in assay [1] (setting [3]) and 0.68% in assay [2] (at 125 μM, read-out: Percentage inhibition Hs ProRS). Besides, the inhibition at 250 µM was found to be 73.7% in assay [1] (setting [3]) and 5.06% in assay [2] (at 250 μM, read-out: Percentage inhibition Hs ProRS). In addition, the inhibition at 500 µM in assay [1] (setting [3]) is 80.2%; in assay [2] (at 500 μM, read-out: Percentage inhibition Hs ProRS) it was 9.51%.

As to `Cc1c(Nc2ncccc2C(=O)O)cccc1C(F)(F)F` [flunixin meglumine], in assay [1] (setting [3]), the inhibition at 0.73 µM turned out to be 0.6%, the inhibition at 1.46 µM is -0.28%, the inhibition at 2.93 µM is -0.7% and the inhibition at 5.86 µM was -0.41%. In assay [1] (setting [3]), the inhibition at 11.72 µM amounted to 1.63%, the inhibition at 23.44 µM came to 2.17%, the inhibition at 46.88 µM was 11.4% and the inhibition at 93.75 µM worked out at 30.7%. Further, in assay [1] (setting [3]), the inhibition at 187.5 µM is 62%, the inhibition at 375 µM worked out at 87.1% and the inhibition at 750 µM stood at 99.8%. In assay [2] (setting [5]), the inhibition at 0.73 µM was 0.21%, the inhibition at 2.93 µM is 0.2%, the inhibition at 5.86 µM is 0.17% and the inhibition at 11.72 µM was determined as 0.37%. Moreover, in assay [2] (setting [5]), the inhibition at 23.44 µM was 0.52%, the inhibition at 46.88 µM was 0.27%, the inhibition at 93.75 µM was -0.02% and the inhibition at 187.5 µM came out at 0.03%. Further, in assay [2] (setting [5]), the inhibition at 375 µM worked out at 0.43% and the inhibition at 750 µM stood at 1.37%. Moreover, the inhibition at 1.46 µM in assay [2] (setting [6]) worked out at 0.19%.

Turning to `COc1ccc(Cl)cc1C(=O)NCCc1ccc(S(=O)(=O)NC(=O)NC2CCCCC2)cc1` [glyburide], the IC50 (usually the midpoint of a concentration-inhibition curve) in assay [1] (PfProRS IC50, 75 nM ProRS, 60 μM proline, 6 μM ATP, 400 μg/mL yeast tRNA, 2 h 37 °C) worked out at 34 µM. Further, in assay [1] (setting [3]), the inhibition at 0.73 µM came out at 1.32%, the inhibition at 1.46 µM is 1.82%, the inhibition at 2.93 µM was found to be 6.24% and the inhibition at 5.86 µM is 12.4%. In assay [1] (setting [3]), the inhibition at 11.72 µM came out at 23.8%, the inhibition at 23.44 µM came out at 39.7%, the inhibition at 46.88 µM came out at 60% and the inhibition at 93.75 µM stood at 81.4%. Moreover, in assay [1] (setting [3]), the inhibition at 187.5 µM came out at 87%, the inhibition at 375 µM came to 94% and the inhibition at 750 µM worked out at 102%. The IC50 in assay [2] is > 700 µM. In assay [2] (setting [5]), the inhibition at 0.73 µM was determined as 0.05%, the inhibition at 2.93 µM is -0.04%, the inhibition at 5.86 µM is 0.29% and the inhibition at 11.72 µM worked out at 0.01%. In assay [2] (setting [5]), the inhibition at 23.44 µM stood at 0.12%, the inhibition at 46.88 µM was determined as 0.36%, the inhibition at 93.75 µM worked out at 1.41% and the inhibition at 187.5 µM came to 4.93%. In assay [2] (setting [5]), the inhibition at 375 µM came out at 15.1% and the inhibition at 750 µM was 36.1%. The inhibition at 1.46 µM in assay [2] (setting [6]) came to 0.03%. For the same molecule, in assay [2] (up to the limit of solubility (>1 mM)), the “inhibitory activity for HsProRS” value is < 40%.
